# Assay results reported in US20180251765A1, “HIGH-THROUGHPUT SPLIT APTAMER SCREENING ASSAY” (BELLBROOK LABS, priority 2015, published 2018).
# Like-named read-outs stand apart in the source and are kept apart here.
# Legend:
# PRMT1 = PRMT1 (Homo sapiens, UniProt Q99873); conditions: read-out: Km (SAM); plot of velocity vs. SAM, FIG. 5F
# [1] = test system: SAH riboswitch from D. aromatica; conditions: cited from earlier work
# [2] = target: dimethyl Arg in Histone H3 (H3R8Me2) (Homo sapiens, UniProt P68431); conditions: cited from earlier work
# [3] = test system: split Dar-1 riboswitch (P152/P218); test: split aptamer SAH FP assay; type: binding, D. aromatica
# Description: Based on the predicted folding of the Dar-1 sequence and imputed SAH binding interactions (Wang et al., 2008, Mol Cell. 29(6):691-702), two versions of a split Dar-1 riboswitch were tested, comprised of either a 59 or 52 base 5′ element (P159 of SEQ ID NO:6 or P152 of SEQ ID NO:7) and the remaining 18 base 3′ element (P218 of SEQ ID NO:8). […] For simplicity, EC50 values were used as an approximation of ligand dissociation constants, or Kd. […] This is the first example of a split aptamer sensor with FP readout.
# Selectivity vs. SAM is a critical parameter, as measurement of HMT enzyme activity requires detection of SAH in an excess of SAM. […] Thus, the selectivity for SAH is at least 200-fold and likely higher; however, measurements are limited by contamination of SAM with SAH. The combination of sensitivity and selectivity is reflected in a standard curve mimicking an HMT enzyme reaction, in which 200 nM SAM was decreased as SAH was added proportionately (FIG. 4D). To quantitatively assess the robustness of the split aptamer FP assay, the standard curve was done with sixteen replicates to allow determination of Z′ values, a commonly used HTS assay statistic that measures that incorporates both dynamic range and data variability (Zhang et al., 1999, J Biomol. Screen. 4(2):67-73). […] The Z′ measured in this Example was 0.56, indicative of a high quality assay.
# [4] = target: SAH riboswitch from R. soanacearum; conditions: isothermal titration calorimetry; cited from earlier work
# Ref-1 riboswitch = test: SAH dependent switch with FP readout, intact riboswitch with fluor-labeled oligo; type: binding, R. ferrireducens; conditions: intact Ref-1
# Source text: (§1) The native riboswitch signaling mechanism was first leveraged by transducing the conformational switch that occurs upon SAH binding into a fluorescent signal. The goal was to identify an oligonucleotide that would bind to the riboswitch specifically when SAH was present due to the localized conformational disruption it causes (FIG. 3A). Using two well characterized riboswitches, Ref-1 (SEQ ID NO:1) and Dar-1 (SEQ ID NO:4) (Wang et al., 2008, Mol. Cell. 29(6):691-702), an unbiased, empirical approach was taken by testing a panel of 8-10 bp oligos that covered the entire sequence of each riboswitch. The oligos were labeled with fluors at the 5′ end so that binding could be detected by the increase in fluorescence polarization.
# A robust, dose dependent FP shift under optimized conditions was observed, which was quite reproducible. However, the affinity of the riboswitch for SAH was much lower than the low nanomolar level expected, and it decreased further over time (see FIG. 3B and inset table for representative data with Dar-1). […] Moreover, the selectivity for SAH vs. SAM was much poorer than expected, less than 50-fold for both Dar-1 and Ref-1 rather than the 1000-fold-plus selectivity reported for the native riboswitch (Wang et al., 2008, Mol. Cell. 29(6):691-702). […]
# Dar-1 riboswitch = test: as above; type: binding, D. aromatica; conditions: for EC50: FP dose response
# Source text: as §1
# A robust, dose dependent FP shift under optimized conditions was observed, which was quite reproducible. However, the affinity of the riboswitch for SAH was much lower than the low nanomolar level expected, and it decreased further over time (see FIG. 3B and inset table for representative data with Dar-1). […] Moreover, the selectivity for SAH vs. SAM was much poorer than expected, less than 50-fold for both Dar-1 and Ref-1 rather than the 1000-fold-plus selectivity reported for the native riboswitch (Wang et al., 2008, Mol. Cell. 29(6):691-702). Despite significant effort to understand and eliminate the unstable nature of the SAH-riboswitch interaction, including confirming that both the riboswitch and the SAH were not degrading over time, a stable, high affinity SAH dependent signal was unable to be obtained. Thus, a split aptamer approach was next explored.
# [5] = test system: split SAH aptamer P152/P218, Eu construct; test: split aptamer SAH TR-FRET assay, Eu construct; type: binding, D. aromatica
# [6] = test system: split SAH aptamer P152/P218, Tb construct; test: split aptamer SAH TR-FRET assay, Tb construct; type: binding, D. aromatica
# Description: The split aptamer SAH detection assay was next formatted for TR-FRET readout. Luminescent lanthanides were attached to P152 of the SAH aptamer via streptavidin-biotin, and organic acceptor fluors were attached to P218 during synthesis. Both Tb and Eu lanthanide chelates (Life Technologies) were tested, as were four different organic fluors with excitation spectra overlapping the lanthanide emission (Alexa 633, Alexa 647, Cy5, and Dylight 650.)
# Importantly, the signal was stable for at least 15 h.
# [7] = target: histone H4 acetylated at lysine 16 (H4K16Ac) (Homo sapiens, UniProt P62805); conditions: cited from earlier work
# [8] = test system: RNA aptamer for theophylline; conditions: on the basis of a single methyl group; cited from earlier work
# PRMT1, sequence (Q99873 whole entry, species assumed): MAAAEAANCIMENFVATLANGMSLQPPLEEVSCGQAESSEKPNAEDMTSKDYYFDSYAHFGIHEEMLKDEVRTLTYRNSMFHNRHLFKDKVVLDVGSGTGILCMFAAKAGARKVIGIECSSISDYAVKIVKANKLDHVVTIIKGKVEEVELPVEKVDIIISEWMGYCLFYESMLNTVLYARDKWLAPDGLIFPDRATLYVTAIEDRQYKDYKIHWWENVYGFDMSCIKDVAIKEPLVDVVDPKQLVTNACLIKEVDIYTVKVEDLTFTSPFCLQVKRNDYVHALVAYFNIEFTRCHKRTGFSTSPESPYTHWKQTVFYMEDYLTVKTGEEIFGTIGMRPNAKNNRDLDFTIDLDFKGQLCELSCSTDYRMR
compound,measurement,setting,value
"C[S+](CC[C@H](N)C(=O)[O-])C[C@H]1O[C@@H](n2cnc3c(N)ncnc32)[C@H](O)[C@@H]1O (stereo partly drawn) [SAM, S-adenosylmethionine]",Km,PRMT1,0.014 µM
same,selectivity for SAH versus SAM (affinity for SAM fold lower),[1]; native riboswitch,at least 1000 fold
"H3R8Me2 aptamer: 50 base RNA aptamer developed for dimethyl Arg in Histone H3 (GAUGGGUCAGCAUGUAGCCAGGCAGGGCCGUGUGAGCUUGUGCUGAUGUG; RNA, backbone and methylation of C not given here)",Kd,[2]; read-out: affinity for the target modified peptide,12 nM
same,selectivity for a similar histone PTM (H3K9Me2),[2]; vs H3K9Me2,8.1 fold
same,selectivity for the unmodified peptide,[2]; vs unmodified peptide,3.5 fold
"Nc1ncnc2c1ncn2[C@@H]1O[C@H](CSCC[C@H](N)C(=O)O)[C@@H](O)[C@H]1O [SAH, S-adenosylhomocysteine]",EC50,"[3]; from FP dose response curves FIG. 4B, used as approximation of Kd",20 to 25 nM
same,selectivity for SAH vs. SAM,[3]; limited by contamination of SAM with SAH,at least 200 fold
same,Kd,[4],30 nM
same,selectivity for SAH vs. SAM,Ref-1 riboswitch,less than 50 fold
same,EC50,"Dar-1 riboswitch; after 3 h, read-out: EC50 for SAH after 3 h",1900 nM
same,EC50,"Dar-1 riboswitch; initial reading, read-out: initial EC50 for SAH",472 nM
same,selectivity for SAH vs. SAM,Dar-1 riboswitch; intact Dar-1,less than 50 fold
same,EC50,[5],16 nM
same,EC50,[6],23 nM
same,Kd,[1]; equilibrium binding analysis,20 nM
"H4K16Ac aptamer: 48 base DNA aptamer for histone H4 acetylated at lysine 16 (AGACGTAAGTTAATTGGACTTGGTCGTGTGCGGCACAGCGATTGAAAT; DNA, backbone and methylation of C not given here)",selectivity versus Histone H4 acetylation at K8 or unmodified Histone H4 sequence,[7],"more than 2,000 fold"
same,Kd,[7]; read-out: Kd for target PTM,21 nM
Cn1c(=O)c2[nH]cnc2n(C)c1=O [theophylline],selectivity against caffeine,[8],more than 10^4 fold
